In ChEMBL document CHEMBL1201862, “PubChem BioAssay data set” (2004):
Activity calls are given as the source filed them.

Key:
[1] = P. falciparum ATP4 D1247Y mutant growth inhibitors, dose response, NITD609-resistant line, SYBR Green, dry powder (AID 1159571); format: functional, cell-based;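 note: parasites synchronized at ring stage by sorbitol before testing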
[2] = HepG2 cell cytotoxicity, dose response, cytotoxicity control, plate reader, dry powder samples (AID 1159569); format: functional, cell-based;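 note: inhibitor potency with signal falling toward the positive control level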
[3] = P. falciparum Dd2 growth inhibitors, dose response, SYBR Green, cherry-picked samples (AID 1159567); format: functional, cell-based
[4] = P. falciparum 3D7-ScDHODH growth inhibitors, dose response, SYBR Green, dry powder samples (AID 1159570); format: functional, cell-based;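 note: parasite growth measured after 72 hours of compound exposure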
[5] = P. falciparum Dd2 growth inhibitors, dose response, SYBR Green, dry powder samples (AID 1159566); format: functional, cell-based;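 note: potency for growth inhibition with lower SYBR green DNA signal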
[6] = HEp-2 cell cytotoxicity, dose response, cytotoxicity control for RSV inhibitor project, HTS (AID 2410); format: functional; conditions: human respiratory syncytial virus
[7] = endogenous miR-122 level reduction, dose response, orthogonal assay for miR-122 inhibitor project, cell-based, Huh7, RT-qPCR, dry powder (AID 687041); format: functional
[8] = Late stage assay provider results from the probe development effort to identify selective inhibitors of heat shock protein 90 (HSP90): Absorbance-based cell proliferation assay in SKBR3 cells.; format: functional; conditions: SK-BR-3
[9] = Late stage assay provider results from the probe development effort to identify selective inhibitors of heat shock protein 90 (HSP90): Absorbance-based cell proliferation assay in MCF7 cells.; format: functional
[10] = Artemis endonuclease inhibitor potency, dose response, biochemical, fluorescence intensity (AID 720701); format: functional;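 note: Artemis endonuclease enzyme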
H9c2 = assay: cells; format: functional, cell-based; conditions: Rattus norvegicus, H9c2, Myocardium;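 note: confirmatory concentration-response retest of ultra-high-throughput screening hits for modulation of myocardial damage; cell death induced by hydrogen peroxide oxidative stress; compound pretreatment for 60 min then peroxide exposure for 2 h; potency is for protecting the cells against peroxide damage rather than for killing them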
[11] = M. tuberculosis H37Rv growth inhibitors, H37Rv strain (AID 1626); format: functional
[12] = Late stage results for the probe development effort to identify inhibitors of Plasmodium falciparum gametocytes: Luminescence-based cell-based high throughput dose response assay to identify inhibitors of viability of late stage Plasmodium falciparum gametocytes.; format: functional
Paired box protein Pax-8 = Paired box protein Pax-8 (Homo sapiens, UniProt Q06710); assay: inhibitors of PAX8-driven TPO luciferase reporter, dose response, RMG-I cells, cherry-pick (AID 687027); format: functional, cell-based;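 note: luciferase reporter driven by Pax8 target thyroperoxidase promoter measured by SteadyGlo luminescence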
Chain of Paired box protein Pax-8 (Q06710 whole entry): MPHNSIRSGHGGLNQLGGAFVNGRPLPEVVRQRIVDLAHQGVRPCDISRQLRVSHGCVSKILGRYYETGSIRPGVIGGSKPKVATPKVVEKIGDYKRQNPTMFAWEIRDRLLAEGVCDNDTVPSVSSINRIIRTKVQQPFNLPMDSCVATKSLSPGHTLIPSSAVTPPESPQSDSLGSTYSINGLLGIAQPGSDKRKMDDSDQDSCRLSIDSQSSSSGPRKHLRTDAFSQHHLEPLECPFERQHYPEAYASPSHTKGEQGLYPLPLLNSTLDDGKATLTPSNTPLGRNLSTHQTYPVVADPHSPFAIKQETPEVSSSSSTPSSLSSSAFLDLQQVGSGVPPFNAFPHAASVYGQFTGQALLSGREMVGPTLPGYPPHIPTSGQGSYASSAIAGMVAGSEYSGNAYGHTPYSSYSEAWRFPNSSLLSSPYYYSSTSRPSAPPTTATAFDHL

[13] = A2780 ovarian cancer cell cytotoxicity, dose response, cytotoxicity control, plate reader, dry powder samples (AID 743046); format: functional, cell-based
[14] = cytotoxicity in OVCAR8 ovarian cancer cells, dose response, PAX8 project, cell-based, plate reader, dry powder samples (AID 743197); format: functional; conditions: OVCAR-8
[15] = HepG2 cell cytotoxicity, dose response, cytotoxicity control, dry powder samples (AID 720568); format: functional, cell-based
fMet-Leu-Phe receptor = fMet-Leu-Phe receptor (Homo sapiens, UniProt P21462); assay: FPR ligands, dose response (AID 519); format: functional
Chain of fMet-Leu-Phe receptor (P21462 whole entry): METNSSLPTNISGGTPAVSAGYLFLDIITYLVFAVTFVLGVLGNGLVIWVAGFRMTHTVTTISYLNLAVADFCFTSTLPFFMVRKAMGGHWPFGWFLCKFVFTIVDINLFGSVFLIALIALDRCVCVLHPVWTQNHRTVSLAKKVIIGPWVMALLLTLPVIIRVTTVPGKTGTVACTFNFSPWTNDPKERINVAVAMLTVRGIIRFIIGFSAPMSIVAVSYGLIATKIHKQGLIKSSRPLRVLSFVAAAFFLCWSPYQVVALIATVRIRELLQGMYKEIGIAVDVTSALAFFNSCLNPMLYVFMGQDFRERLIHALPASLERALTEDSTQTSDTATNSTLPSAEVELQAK

[16] = target: 1-phosphatidylinositol 4,5-bisphosphate phosphodiesterase beta-3 (Homo sapiens, UniProt Q01970); assay: Fluorescence-based biochemical high throughput dose response assay to identify inhibitors of phospholipase C isozymes (PLC-B3).
Chain of 1-phosphatidylinositol 4,5-bisphosphate phosphodiesterase beta-3 (Q01970 whole entry): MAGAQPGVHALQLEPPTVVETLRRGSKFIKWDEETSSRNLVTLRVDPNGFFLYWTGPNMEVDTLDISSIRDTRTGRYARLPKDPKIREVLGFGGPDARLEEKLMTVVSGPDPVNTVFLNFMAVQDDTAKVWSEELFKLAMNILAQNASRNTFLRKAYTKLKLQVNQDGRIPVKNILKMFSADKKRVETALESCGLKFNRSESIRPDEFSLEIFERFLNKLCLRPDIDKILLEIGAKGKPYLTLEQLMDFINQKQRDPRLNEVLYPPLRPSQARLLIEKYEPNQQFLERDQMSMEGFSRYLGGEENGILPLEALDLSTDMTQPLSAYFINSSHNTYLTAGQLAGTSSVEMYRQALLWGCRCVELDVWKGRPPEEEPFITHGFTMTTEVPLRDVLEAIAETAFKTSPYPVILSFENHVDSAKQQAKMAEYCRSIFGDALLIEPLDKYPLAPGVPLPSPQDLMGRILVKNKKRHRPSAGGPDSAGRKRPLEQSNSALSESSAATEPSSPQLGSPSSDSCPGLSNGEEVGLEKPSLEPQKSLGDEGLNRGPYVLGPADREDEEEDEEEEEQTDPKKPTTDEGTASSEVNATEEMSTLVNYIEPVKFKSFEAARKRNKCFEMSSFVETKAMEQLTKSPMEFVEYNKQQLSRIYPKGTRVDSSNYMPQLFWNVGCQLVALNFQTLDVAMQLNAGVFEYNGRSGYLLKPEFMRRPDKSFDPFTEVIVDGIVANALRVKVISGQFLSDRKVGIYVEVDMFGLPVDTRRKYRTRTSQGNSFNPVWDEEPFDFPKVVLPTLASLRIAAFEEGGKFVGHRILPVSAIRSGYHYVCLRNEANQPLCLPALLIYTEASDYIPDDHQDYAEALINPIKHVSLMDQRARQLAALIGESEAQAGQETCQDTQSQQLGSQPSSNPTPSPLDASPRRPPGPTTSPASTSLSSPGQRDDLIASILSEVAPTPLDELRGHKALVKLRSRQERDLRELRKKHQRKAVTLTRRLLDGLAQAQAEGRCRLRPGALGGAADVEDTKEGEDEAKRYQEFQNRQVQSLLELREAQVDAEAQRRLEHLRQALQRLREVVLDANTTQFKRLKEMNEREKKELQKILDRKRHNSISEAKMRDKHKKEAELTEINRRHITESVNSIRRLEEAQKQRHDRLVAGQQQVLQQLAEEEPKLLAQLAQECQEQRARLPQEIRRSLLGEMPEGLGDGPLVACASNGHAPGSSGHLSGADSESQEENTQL

[17] = target: 1-phosphatidylinositol 4,5-bisphosphate phosphodiesterase gamma-1 (Homo sapiens, UniProt P19174); assay: Counterscreen for inhibitors of phospholipase C isozymes (PLC-B3): Fluorescence-based biochemical high throughput dose response assay to identify inhibitors of phospholipase C isozymes (PLC-gamma1).
Chain of 1-phosphatidylinositol 4,5-bisphosphate phosphodiesterase gamma-1 (P19174 whole entry): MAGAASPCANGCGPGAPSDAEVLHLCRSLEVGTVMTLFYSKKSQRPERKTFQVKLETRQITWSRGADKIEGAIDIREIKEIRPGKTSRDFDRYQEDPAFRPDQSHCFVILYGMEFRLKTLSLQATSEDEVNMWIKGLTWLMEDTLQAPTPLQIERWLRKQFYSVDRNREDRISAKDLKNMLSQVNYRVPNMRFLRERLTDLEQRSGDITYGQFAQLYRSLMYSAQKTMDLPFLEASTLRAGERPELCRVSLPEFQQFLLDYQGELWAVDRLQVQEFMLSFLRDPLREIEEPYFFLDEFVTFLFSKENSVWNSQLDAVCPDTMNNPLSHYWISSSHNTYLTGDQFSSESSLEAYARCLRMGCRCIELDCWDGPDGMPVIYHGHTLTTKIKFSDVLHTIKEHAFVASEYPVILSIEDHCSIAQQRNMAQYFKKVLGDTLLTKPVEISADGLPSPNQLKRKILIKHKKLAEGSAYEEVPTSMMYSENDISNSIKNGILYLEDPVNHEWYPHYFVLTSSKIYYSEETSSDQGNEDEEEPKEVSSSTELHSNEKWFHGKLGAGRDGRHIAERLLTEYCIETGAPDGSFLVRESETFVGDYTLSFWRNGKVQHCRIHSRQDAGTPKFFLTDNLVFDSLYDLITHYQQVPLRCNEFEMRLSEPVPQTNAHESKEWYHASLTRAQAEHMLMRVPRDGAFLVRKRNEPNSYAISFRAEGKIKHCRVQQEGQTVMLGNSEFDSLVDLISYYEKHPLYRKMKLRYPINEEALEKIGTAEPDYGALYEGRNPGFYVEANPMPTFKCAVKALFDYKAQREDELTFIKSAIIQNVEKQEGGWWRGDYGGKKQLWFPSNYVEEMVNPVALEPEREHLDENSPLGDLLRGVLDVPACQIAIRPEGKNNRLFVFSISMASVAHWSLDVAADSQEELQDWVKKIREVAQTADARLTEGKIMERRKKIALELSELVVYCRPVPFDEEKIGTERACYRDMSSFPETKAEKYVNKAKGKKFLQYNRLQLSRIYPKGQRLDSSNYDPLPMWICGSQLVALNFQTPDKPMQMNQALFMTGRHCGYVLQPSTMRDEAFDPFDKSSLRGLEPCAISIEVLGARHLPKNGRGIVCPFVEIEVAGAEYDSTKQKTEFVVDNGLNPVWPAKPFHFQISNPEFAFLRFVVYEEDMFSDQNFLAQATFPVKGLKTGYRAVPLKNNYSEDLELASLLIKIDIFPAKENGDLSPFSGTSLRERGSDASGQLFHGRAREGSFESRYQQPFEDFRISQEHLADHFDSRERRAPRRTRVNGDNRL

[18] = HEK293 Cytotoxicity Assay Measured in Cell-Based System Using Plate Reader - 7071-01_Inhibitor_Dose_CherryPick_Activity_Set2.; format: functional
HEK293 = assay: HEK293T cell cytotoxicity, dose response, cytotoxicity control, ATP luminescence, cherry-pick samples (AID 687005); format: functional, cell-based; conditions: Homo sapiens;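 note: cells exposed to compound for 48 hours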
[19] = MITF: Counter assay: A375 proliferation Measured in Cell-Based System Using Plate Reader - 2084-03_Inhibitor_Dose_DryPowder_Activity_Set8.; format: functional; conditions: A-375
[20] = MITF Orthogonal Assay: SK-MEL-5 CTG Assay Measured in Cell-Based System Using Plate Reader - 2084-02_Inhibitor_Dose_DryPowder_Activity_Set7.; format: functional
[21] = TRPM1 promoter luciferase reporter signal decrease, dose response, MITF inhibitor project, cell-based, SK-MEL-5, dry powder, set 8 (AID 624430); format: functional

COc1ccc(S(=O)(=O)N2CCC3(CC2)CN(Cc2ccncc2)[C@@H](CO)c2[nH]c4cc(OC)ccc4c23)cc1
AC50 [1]: 1.67 µM (active) | AC50 [2]: 22.9 µM (active) | AC50 [3]: 2.29 µM (active) | AC50 [4]: 1.41 µM (active) | AC50 [5]: 1.17 µM (active)

CC1CCCCN1C(=O)c1cc2nc(-c3ccccc3)cc(-c3ccccc3)n2n1 (stereo unspecified)
IC50 (cells): 19.3 µM (active) | CC50 [6]: 15.6 µM (active) | AC50 [7]: 1.13 µM (active)

O=C1OC(=O)/C(=C\Nc2ccccc2F)C=C1Br
IC50 [8]: 13.3 µM (inactive) | IC50 [9]: 13.6 µM (inactive)

COc1ccc(-c2nn(-c3ccccc3)cc2C(=O)Nc2nccs2)cc1
IC50 [10]: 9.49 µM (active) | IC50 (H9c2): > 79 µM (inactive) | IC50 [11]: > 100 µM (active) | IC50 [12]: > 74.4 µM (inactive)

C[C@@H]1CN([C@@H](C)CO)C(=O)c2cc(NC(=O)Nc3ccc(C(F)(F)F)cc3)ccc2O[C@@H](C)CCCCO[C@@H]1CN(C)Cc1ccc2c(c1)OCO2
AC50 (Paired box protein Pax-8): 5.64 µM (active) | AC50 [13]: 56.1 µM (active) | AC50 [14]: 57.3 µM (active)

CC(=O)N[C@H]1[C@@H](O[C@@H]2OC(C[C@@H](O)C3O[C@@H](n4ccc(=O)[nH]c4=O)[C@H](O)[C@@H]3O)[C@H](O)[C@H](O)[C@H]2NC(=O)/C=C/CCCCCCCCCCC(C)C)O[C@H](CO)[C@@H](O)[C@@H]1O (stereo partly specified)
AC50 [15]: 13.5 µM (active)

CCOc1cccc(C(=O)C2=C(O)C(=O)N(Cc3cccnc3)C2c2ccco2)c1 (stereo unspecified)
Ki (fMet-Leu-Phe receptor): > 66.7 µM (inactive)

Nc1ncnc2c1ncn2[C@@H]1O[C@H](COP(=O)(O)CP(=O)(O)O)[C@@H](O)[C@H]1O [PHOSPHOMETHYLPHOSPHONIC ACID ADENOSYL ESTER]
IC50 [16]: > 122 µM (inactive) | IC50 [17]: 2.2 µM (active)

CN1[C@@H]2c3ccc(-c4cccnc4)c(=O)n3C[C@@H]2[C@@H](CO)[C@@H]1C(=O)N1CCc2ccccc2C1
AC50 [18]: > 52 µM (inactive) | AC50 (HEK293): > 52 µM (inactive)

CCN1CCN(C2=C(Nc3ccc(Br)cc3)C(=O)c3ccccc3C2=O)CC1
AC50 [19]: 29.3 µM (active) | AC50 [20]: 8.61 µM (active) | AC50 [21]: 10.7 µM (active)
